Values quoted from earlier work as cited in US10662178B2, “Crystalline form of Olaparib” (Apotex Inc., priority 2018, dated 2020).

Settings: CHMP Assessment Report EMEA/H/C/003726/0000

## O=C(c1cc(Cc2n[nH]c(=O)c3ccccc23)ccc1F)N1CCN(C(=O)C2CC2)CC1 [Olaparib, 4-[(3-{[4-(cyclopropylcarbonyl)-piperazin-1-yl]carbonyl}-4-fluorophenyl)methyl]phthalazin-1(2H)-one]
  Biopharmaceutics Classification System (BCS) class: Class IV
Drug substance in the approved drug product LYNPARZA
  solubility: low solubility
